Results as given in ChEMBL document CHEMBL5390322, “Discovery of 5-Azaquinoxaline Derivatives as Potent and Orally Bioavailable Allosteric SHP2 Inhibitors” (ACS Med Chem Lett, 2023).
Values after ≈ are worked out from the molar mass of the structure shown.

Experiments:
[1] = target: T1, Mitogen-activated protein kinase; ERK1/ERK2 (Homo sapiens, UniProt P27361+P28482); test: Inhibition of ERK1/2 phosphorylation at Thr202/Tyr204 residues in human KYSE520 cells incubated for 1 hrs by Western blot analysis; assay type: cell-based
T1 sequence (P27361 whole entry, looked up): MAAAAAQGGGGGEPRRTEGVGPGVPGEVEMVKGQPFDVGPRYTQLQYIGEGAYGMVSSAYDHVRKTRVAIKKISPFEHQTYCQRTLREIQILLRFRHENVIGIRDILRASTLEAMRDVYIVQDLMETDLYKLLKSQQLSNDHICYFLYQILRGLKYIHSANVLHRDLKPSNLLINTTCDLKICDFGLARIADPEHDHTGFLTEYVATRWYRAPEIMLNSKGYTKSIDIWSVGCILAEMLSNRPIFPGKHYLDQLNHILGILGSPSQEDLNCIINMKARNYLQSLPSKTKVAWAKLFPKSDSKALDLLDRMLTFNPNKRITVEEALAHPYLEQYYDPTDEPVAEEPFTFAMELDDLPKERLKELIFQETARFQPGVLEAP
T1 sequence (P28482 whole entry, looked up): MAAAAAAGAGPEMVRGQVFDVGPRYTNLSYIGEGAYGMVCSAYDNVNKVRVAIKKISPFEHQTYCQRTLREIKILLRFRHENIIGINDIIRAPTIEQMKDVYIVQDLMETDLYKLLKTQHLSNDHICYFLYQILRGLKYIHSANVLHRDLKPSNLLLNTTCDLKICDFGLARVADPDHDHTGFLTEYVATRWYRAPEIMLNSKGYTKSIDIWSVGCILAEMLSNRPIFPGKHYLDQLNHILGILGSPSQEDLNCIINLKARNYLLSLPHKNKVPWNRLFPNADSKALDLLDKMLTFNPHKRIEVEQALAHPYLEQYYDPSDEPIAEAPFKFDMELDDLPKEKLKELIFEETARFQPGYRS

MIA PaCa-2 [2] = test: Antitumor activity against human MIA PaCa-2 cells harboring KRAS G12C mutant xenografted in athymic nude Foxn1nu mouse assessed as tumor growth inhibition at 100 mg/kg,po administrated for 28 days and measured every 3 to 4 days relative to control; assay type: functional; conditions: time 28 day
[3] = Metabolic stability in human hepatocyte assessed as intrinsic clearance incubated for 1 to 2 hrs by LC-MS analysis; assay type: ADME, cell-based; conditions: hepatocytes, time 1-2 hrs, read-out: CLH
[4] = Half life in CD-1 mouse at 1 mg/kg, iv measured upto 8 hrs by LC-MS/MS method; assay type: ADME, organism-based; conditions: in vivo
[5] = Cmax in CD-1 mouse at 10 mg/kg, po measured upto 24 hrs by LC-MS/MS method; assay type: ADME, organism-based; set-up: dose 10 mg/kg, time < 24 hrs, route po; conditions: in vivo
[6] = Metabolic stability in mouse liver microsome assessed as intrinsic clearance at […] preincubated for 5 mins followed by NADPH addition and measured after 20 mins by LC-MS analysis; assay type: ADME; conditions: liver microsomes, dose 2.5 µM, time 25 min, read-out: CLH
[7] = Clearance in CD-1 mouse at 1 mg/kg, iv measured upto 8 hrs by LC-MS/MS method; assay type: ADME, organism-based; conditions: in vivo
[8] = Tmax in CD-1 mouse at 10 mg/kg, po measured upto 24 hrs by LC-MS/MS method; assay type: ADME, organism-based; conditions: in vivo
[9] = Metabolic stability in mouse hepatocyte assessed as intrinsic clearance incubated for 1 to 2 hrs by LC-MS analysis; assay type: ADME, cell-based; conditions: hepatocytes, time 1-2 hrs, read-out: CLH
[10] = Metabolic stability in human liver microsome assessed as intrinsic clearance at […] preincubated for 5 mins followed by NADPH addition and measured after 20 mins by LC-MS analysis; assay type: ADME; conditions: liver microsomes, dose 2.5 µM, time 25 min, read-out: CLH
[11] = AUC(0 to infinity) in CD-1 mouse at 10 mg/kg, po measured upto 24 hrs by LC-MS/MS method; assay type: ADME, organism-based; set-up: time < 24 hrs, dose 10 mg/kg, route po; conditions: in vivo
[12] = Toxicity in athymic nude Foxn1nu mouse xenografted with human MIA PaCa-2 cells harboring KRAS G12C mutant assessed as body weight loss at 30 to 100 mg/kg,po administrated for 28 days and measured every 3 to 4 days relative to control; assay type: organism-based; conditions: in vivo, 672 h, dose 30-100 mg/kg, time 28 day
[13] = Oral bioavailability in CD-1 mouse at 10 mg/kg measured upto 24 hrs by LC-MS/MS method; assay type: ADME, organism-based; conditions: in vivo
[14] = Volume of distribution at steady state in CD-1 mouse at 1 mg/kg, iv measured upto 8 hrs by LC-MS/MS method; assay type: ADME, organism-based; conditions: in vivo, read-out: Vdss
[15] = Solubility of the compound in FaSSIF at 1 mg/ml incubated for 24 hrs by LC-MS/MS analysis; assay type: physicochemical
[16] = target: T1, Mitogen-activated protein kinase; ERK1/ERK2; conditions: KYSE520, time 1.0 hrs
MIA PaCa-2 [17] = test: Antitumor activity against human MIA PaCa-2 cells harboring KRAS G12C mutant xenografted in athymic nude Foxn1nu mouse assessed as tumor growth inhibition at 30 mg/kg,po administrated for 28 days and measured every 3 to 4 days relative to control; assay type: functional; conditions: time 28 day
[18] = Permeability of compound from apical to basolateral side in LLC-PK1 cells incubated for 2 hrs by LC-MS/MS analysis; assay type: ADME, cell-based, Sus scrofa; conditions: pig, read-out: permeability
[19] = target: T1, Mitogen-activated protein kinase; ERK1/ERK2; conditions: KYSE520, time 1.0 hrs; remark: listed apart in the source

Nc1nccc(Sc2ccc3nc(N4CCC5(CC4)Cc4ncccc4[C@H]5N)cnc3n2)c1Cl
IC50 [1]: 5 nM
TGI (MIA PaCa-2 [2]): 75%
CLint scaled at 10000 µM [3]: 11 mL/min/kg
half-life [4]: 1.44 h
Cmax [5]: 649 ng/mL
CLint scaled at […] [6]: 35 mL/min/kg
clearance [7]: 19.2 mL/min/kg
Tmax [8]: 4 h
CLint scaled [9]: 28 mL/min/kg
CLint scaled at […] [10]: 9 mL/min/kg
AUC(0-inf) [11]: 5780 ng·h/mL
Activity [12]: < 5%
bioavailability [13]: 66.5%
Vd [14]: 1.74 L/kg
solubility at 24 h [15]: 271 µg/mL (≈ 552 µM)
fIC50 [16]: 0.06 µg/mL
fIC90 [16]: 0.535 µg/mL
TGI (MIA PaCa-2 [17]): 38%
Papp A→B at 2 h [18]: 11 ×10⁻⁶ cm/s
fIC50 [19]: 0.06 µg/mL
fIC90 [19]: 0.535 µg/mL
